Experimental data taken from PMC6010129, “Evaluation of sulphonamide derivatives acting as inhibitors of human carbonic anhydrase isoforms I, II and Mycobacterium tuberculosisβ-class enzyme Rv3273” (Journal of Enzyme Inhibition and Medicinal Chemistry, 2018).

How the values were obtained:
hCA II = molecular target: T1, hCA II (Homo sapiens, UniProt P00918); experiment: stopped-flow CO2 hydrase assay; type: biochemical
T1 construct: gene CA2; cytosolic isoform
Source text: stopped-flow CO2 hydrase assay on hCA II

hCA I = molecular target: T2, hCA I (Homo sapiens, UniProt P00915); experiment: stopped-flow CO2 hydrase assay; type: biochemical
T2 construct: gene CA1; cytosolic isoform
T2 sequence (P00915 2-261): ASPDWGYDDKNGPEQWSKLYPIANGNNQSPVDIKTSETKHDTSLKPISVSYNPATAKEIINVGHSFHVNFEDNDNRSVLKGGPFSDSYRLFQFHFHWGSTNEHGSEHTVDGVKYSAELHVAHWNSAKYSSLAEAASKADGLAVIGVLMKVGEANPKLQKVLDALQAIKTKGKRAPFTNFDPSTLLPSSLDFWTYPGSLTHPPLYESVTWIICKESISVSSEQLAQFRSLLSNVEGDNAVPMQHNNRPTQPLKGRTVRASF
Source text: stopped-flow CO2 hydrase assay on hCA I

mtCA 3 = molecular target: T3, mtCA 3 (Mycobacterium tuberculosis, UniProt P96878); experiment: biochemical; design: stopped-flow CO2 hydration assay, phenol red absorbance at 557 nm, 15 min pre-incubation, Ki by Cheng-Prusoff
T3 construct: beta-class carbonic anhydrase
T3 sequence (P96878 entry or part of it): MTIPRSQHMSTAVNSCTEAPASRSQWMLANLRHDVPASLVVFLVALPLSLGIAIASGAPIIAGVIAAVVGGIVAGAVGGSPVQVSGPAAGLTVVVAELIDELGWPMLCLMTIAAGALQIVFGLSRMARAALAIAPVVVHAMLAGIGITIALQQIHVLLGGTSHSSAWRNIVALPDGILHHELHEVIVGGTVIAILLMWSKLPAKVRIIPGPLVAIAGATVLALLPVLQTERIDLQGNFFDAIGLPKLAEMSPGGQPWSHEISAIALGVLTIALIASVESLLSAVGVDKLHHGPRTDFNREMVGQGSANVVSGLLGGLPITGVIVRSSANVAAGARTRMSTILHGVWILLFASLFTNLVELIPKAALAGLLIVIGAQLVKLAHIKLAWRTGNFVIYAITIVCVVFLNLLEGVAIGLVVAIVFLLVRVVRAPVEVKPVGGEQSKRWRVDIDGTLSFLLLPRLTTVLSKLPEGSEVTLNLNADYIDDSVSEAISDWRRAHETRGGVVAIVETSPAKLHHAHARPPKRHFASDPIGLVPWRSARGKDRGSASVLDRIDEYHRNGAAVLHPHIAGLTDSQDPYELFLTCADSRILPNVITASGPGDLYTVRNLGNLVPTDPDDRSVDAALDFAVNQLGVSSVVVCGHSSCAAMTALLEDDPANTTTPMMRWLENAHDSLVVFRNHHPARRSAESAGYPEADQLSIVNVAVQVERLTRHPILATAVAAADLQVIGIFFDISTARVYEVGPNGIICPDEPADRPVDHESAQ
Protocol: An Sx.18Mv-R Applied Photophysics (Oxford, UK) stopped-flow instrument has been used to assay the catalytic activity of various CA isozymes for CO2 hydration reaction. Phenol red (at a concentration of 0.2 mM) was used as indicator, working at the absorbance maximum of 557 nm, with 10 mM Hepes (pH 7.5) or 10 mM Tris (pH 8.5) as buffers, and 0.1 M Na2SO4 (for maintaining constant ionic strength, which is not inhibitory against these enzymes), following the CA-catalysed CO2 hydration reaction for a period of 10 s at 25 °C. The CO2 concentrations ranged from 1.7 to 17 mM for the determination of the kinetic parameters and […]. For each inhibitor at least six traces of the initial 5–10% of the reaction have been used for determining the initial rate. The uncatalysed rates were determined in the same manner and subtracted from the total observed rates. Stock solutions of inhibitors (10 mM) were prepared in distilled-deionised […] to 1 nM using the assay buffer. Inhibitor and enzyme solutions were pre-incubated together for 15 min (standard assay at room temperature) prior to assay, in order to allow for the formation of the enzyme–inhibitor complex. The inhibition constant (KI), was obtained by considering the classical Michaelis–Menten equation and the Cheng-Prusoff algorithm by using non-linear least squares fitting as reported earlier. The compounds 5 and 6 reported here were investigated as inhibitors of three CAs involved in crucial physiologic processes and known to act as drug targets, i.e. the human (h) isoforms hCA I and II (belonging to the α-CA class) and the bacterial enzyme mtCA3 from Mycobacterium tuberculosis (a β-class CA) (Table 3). Acetazolamide (AAZ), a clinically used sulphonamide has been employed as standard inhibitor in the assay.

Row | SMILES | Ki (hCA II) | Ki (hCA I) | Ki (mtCA 3)
1 | CC1=NN(C(=O)CNc2ccc(S(N)(=O)=O)cc2)C(c2cccs2)C1 (stereo not drawn) [5u, 4-((2-(3-Methyl-5-(thiophen-2-yl)-4,5-dihydro-1H-pyrazol-1-yl)-2-oxoethyl)amino)benzenesulphonamide] | 126 nM | 798 nM | 1450 nM
2 | CC1=NN(C(=O)CNc2ccc(S(N)(=O)=O)cc2)C(c2ccc(C)cc2)C1 (stereo not drawn) [5o, 4-((2-(3-Methyl-5-(p-tolyl)-4,5-dihydro-1H-pyrazol-1-yl)-2-oxoethyl)amino)benzene sulphonamide] | 3460 nM | 898 nM | 275 nM
